# Reference: patent US20130065959A1, “SANITIZING MEAT WITH PERACID AND 2-HYDROXY ORGANIC ACID COMPOSITIONS” (Fresh Express Incorporated, priority 2009, published 2013)
# Assays:
# [1] = 40° C.; cited from earlier work
# [2] = Depletion of sanitizer wash water by diced Romaine, commercial scale test (Example 5); type: physicochemical; settings: 38 to 40 F; for PA (ppm) / Peroxide (ppm): 600 gallons, LA 0 ppm
# Procedure: (§1) Example 5. These experiments evaluated the consumption or depletion of peroxyacetic acid when used to wash produce.
# (§2) Treatments: chlorinated water, peroxyacetic acid wash water, and FE sanitizer wash water
# (§3) Temperature: 38 to 40° F.
# (§4) Produce: 1.5″×2″ diced Romaine lettuce
# A. Determination of the amount of Romaine Lettuce that could deplete 600 gallons of peroxyacetic acid wash water. • 1. Perform full sanitization on the Pilot Line System. • 2. Fill the 2nd flume tank, 2nd reservoir, and 2nd filtering tank with tap water. • 3. Recycle the water through the system until the water in the system is being cooled down to 40° F. • 4. Calibrate the Prominent System and use the Prominent System to monitor the concentration of PAA in the wash water. • 5. Add the PAA to the 2nd filtering tank until the target processing limit is reached. • 6. Dice the Romaine Lettuce via the translicer. • 7. Collect the 2″×2″ diced Romaine in totes. • 8. Record the weight of each tote prior to transferring it to the 2nd flume. • 9. Collect three untreated bags of Romaine Lettuce from each bin (1 top, 1 middle, and 1 bottom). • 10. Collect three treated bags of Romaine Lettuce at the end of F2 (1 beginning, 1 middle, and 1 end of the bin). • 11. Place white totes at the bottom of the locations with water spill. Return the spilt water back into the flume tank as needed. • 12. Place white totes at the bottom outlets of the centrifuge to collect liquid that would be spin off from the leaves. Return the collected water back into the flume tank as needed. • 13. Repeat Steps ‘e’ to ‘k’ for the rest of the bins till the FE concentrations fall below the lowest processing limits. • 14. Enumerate the microbial population (APC and Yeast and mold) on the collected samples. B. Determination of the amount of Romaine Lettuce that could deplete 600 gallons of FE wash water • 1. Perform full sanitization on the Pilot Line System. • 2. Fill the 1st flume tank, 2nd flume tank, 1st reservoir, 2nd reservoir, 1^stfiltering tank, and 2nd filtering tank with tap water. • 3. Recycle the water through the system until the water in the system is being cooled down to 40° F. • 4. Switch on the by-passes for the 1st and 2nd flume tank systems so that water would not be going through the filtering systems but only recycling from the flume tank to its associate reservoir continuously. • 5. Add the chemical ingredients to both tank until the target processing limit is reached. • 6. Verify the concentration of FE by the probe of the Prominent Monitoring System at the 1st flume tank (F1), 1st Reservoir (R1), 2nd Flume tank (F2), and the 2nd Reservoir (R2). • 7. Collect water samples from F1 and F2. • 8. Assemble the Romaine Lettuce Bins next to the dumpster. • 9. Transfer whole Romaine Lettuce leaves from the bin to the conveyor. • 10. Ensure that the lid above the F1 is closed. Turn the “ON/OFF” switch of the translicer to “ON”. • 11. Turn the conveyor for transferring leaves into the translicer to “ON”. • 12. Ensure that the chopped Romaine are delivered evenly into the flume tank without aggregation and clumping. • 13. Collect three untreated bags of Romaine Lettuce from each bin (1 top, 1 middle, and 1 bottom). • 14. Collect three treated bags of Romaine Lettuce at the end of F2 (1 beginning, 1 middle, and 1 end of the bin). • 15. Verify the pH, temperature, and the concentration of FE at the 1st flume tank (F1), 1st Reservoir (R1), 2nd Flume tank (F2), and the 2nd Reservoir (R2) before and after processing a bin. • 16. Place white totes at the bottom of the locations with water spill. Return the spilt water back into the flume tank as needed. • 17. Place white totes at the bottom outlets of the centrifuge to collect liquid that would be spin off from the leaves. Return the collected water back into the flume tank as needed. • 18. Repeat Steps ‘e’ to ‘o’ for the rest of the bins till the FE concentrations fall below the lowest processing limits. • 19. […]
# [3] = tested on: indigenous microorganisms; experiment: Reduction of indigenous microorganisms on Romaine, Aerobic Plate Counts, commercial scale test (Example 5); type: cell-based; settings: 73-84 ppm peroxyacetic acid, no lactic acid
# Procedure: as §1, §2, §3, §4
# A. Determination of the amount of Romaine Lettuce that could deplete 600 gallons of peroxyacetic acid wash water. • 1. Perform full sanitization on the Pilot Line System. • 2. Fill the 2nd flume tank, 2nd reservoir, and 2nd filtering tank with tap water. • 3. Recycle the water through the system until the water in the system is being cooled down to 40° F. • 4. Calibrate the Prominent System and use the Prominent System to monitor the concentration of PAA in the wash water. • 5. Add the PAA to the 2nd filtering tank until the target processing limit is reached. • 6. Dice the Romaine Lettuce via the translicer. • 7. Collect the 2″×2″ diced Romaine in totes. • 8. Record the weight of each tote prior to transferring it to the 2nd flume. • 9. Collect three untreated bags of Romaine Lettuce from each bin (1 top, 1 middle, and 1 bottom). • 10. Collect three treated bags of Romaine Lettuce at the end of F2 (1 beginning, 1 middle, and 1 end of the bin). • 11. Place white totes at the bottom of the locations with water spill. Return the spilt water back into the flume tank as needed. • 12. […]
# [4] = 600 gallons wash water, whole run
# [5] = cumulative diced Romaine added 0.0 lb
# [6] = cumulative diced Romaine added 55.2 lb
# [7] = cumulative diced Romaine added 114.9 lb
# [8] = cumulative diced Romaine added 157.2 lb
# [9] = cumulative diced Romaine added 207.7 lb
# [10] = cumulative diced Romaine added 272.9 lb
# [11] = cumulative diced Romaine added 325.8 lb
# [12] = cumulative diced Romaine added 371.3 lb
# [13] = cumulative diced Romaine added 424.7 lb
# [14] = cumulative diced Romaine added 502.6 lb
# [15] = cumulative diced Romaine added 565.0 lb
# [16] = cumulative diced Romaine added 629.0 lb
# [17] = cumulative diced Romaine added 697.1 lb
# [18] = cumulative diced Romaine added 762.7 lb
# [19] = cumulative diced Romaine added 826.6 lb
# [20] = cumulative diced Romaine added 896.2 lb
# [21] = cumulative diced Romaine added 949.9 lb
smiles,measurement,setting,value
"CC(=O)OO [Peroxyacetic acid, peroxyacetic acid]","apparent equilibrium constant, Kap",[1],about 2.21
same,Amount of PA consumed,[2]; [4],11.7 ppm
same,Pounds of PA consumed,[2]; [4],0.01208 lb
same,Depletion of PA,"[2]; 600 gallons wash water, no lactic acid",0.000013 lb of PA per lb of Romaine
same,PA (ppm),[2]; [5],84.8 ppm
same,Peroxide (ppm),[2]; [5],7.5 ppm
same,PA (ppm),[2]; [6],83.3 ppm
same,Peroxide (ppm),[2]; [6],7.4 ppm
same,PA (ppm),[2]; [7],82.7 ppm
same,Peroxide (ppm),[2]; [7],7.4 ppm
same,PA (ppm),[2]; [8],82.4 ppm
same,Peroxide (ppm),[2]; [8],7.4 ppm
same,PA (ppm),[2]; [9],82.0 ppm
same,Peroxide (ppm),[2]; [9],7.4 ppm
same,PA (ppm),[2]; [10],81.4 ppm
same,Peroxide (ppm),[2]; [10],7.3 ppm
same,PA (ppm),[2]; [11],81.0 ppm
same,Peroxide (ppm),[2]; [11],7.3 ppm
same,PA (ppm),[2]; [12],80.5 ppm
same,Peroxide (ppm),[2]; [12],7.1 ppm
same,PA (ppm),[2]; [13],79.6 ppm
same,Peroxide (ppm),[2]; [13],6.9 ppm
same,PA (ppm),[2]; [14],78.7 ppm
same,Peroxide (ppm),[2]; [14],6.9 ppm
same,PA (ppm),[2]; [15],78.4 ppm
same,Peroxide (ppm),[2]; [15],6.9 ppm
same,PA (ppm),[2]; [16],77.7 ppm
same,Peroxide (ppm),[2]; [16],6.4 ppm
same,PA (ppm),[2]; [17],76.1 ppm
same,Peroxide (ppm),[2]; [17],6.4 ppm
same,PA (ppm),[2]; [18],75.4 ppm
same,Peroxide (ppm),[2]; [18],6.1 ppm
same,PA (ppm),[2]; [19],74.7 ppm
same,Peroxide (ppm),[2]; [19],6.0 ppm
same,PA (ppm),[2]; [20],73.7 ppm
same,Peroxide (ppm),[2]; [20],6.0 ppm
same,PA (ppm),[2]; [21],73.1 ppm
same,Peroxide (ppm),[2]; [21],6.0 ppm
same,"Log Reduction, Aerobic Plate Counts",[3],0.7 Log cfu/g
same,Aerobic Plate Counts after wash,[3]; untreated 3.4,2.7 Log cfu/g
